Experimental data: ChEMBL document CHEMBL4382259, “Synthesis of novel guttiferone E and xanthochymol derivatives with cytotoxicities by inducing cell apoptosis and arresting the cell cycle phase” (Eur J Med Chem, 2019)

Legend:
Assay type in all cases: functional, cell-based
HEL = assay: Antiproliferative activity against HEL cells after 72 hrs by MTT assay; details: Homo sapiens
A549 = assay: Antiproliferative activity against human A549 cells after 72 hrs by MTT assay; details: A549, 72 h
HeLa = assay: Antiproliferative activity against human HeLa cells after 72 hrs by MTT assay
K562 = assay: Antiproliferative activity against human K562 cells after 72 hrs by MTT assay; details: K562, 72 h
MCF7 = assay: Antiproliferative activity against human MCF7 cells after 72 hrs by MTT assay; details: MCF7, 72 h

Compound | IC50 (HEL) [µM] | IC50 (A549) [µM] | IC50 (HeLa) [µM] | IC50 (K562) [µM] | IC50 (MCF7) [µM]
CC(C)=CCOc1ccc(C(=O)C2=C3OC(C)(C)[C@@H](CC=C(C)C)C[C@@]34C[C@@H](CC=C(C)C)C(C)(C)[C@@](CC=C(C)C)(C2=O)C4=O)cc1OCC=C(C)C | > 20 | 17.2 | > 20 | > 20 | > 20
CC(C)=CC[C@H]1C[C@@]23C[C@@H](CC=C(C)C)C(C)(C)[C@@](CC=C(C)C)(C(=O)C(C(=O)c4ccc(OCc5ccccc5)c(OCc5ccccc5)c4)=C2OC1(C)C)C3=O | > 20 | > 20 | 10.6 | > 20 | 15.1
C=CCOc1ccc(C(=O)C2=C3OC(C)(C)[C@@H](CC=C(C)C)C[C@@]34C[C@@H](CC=C(C)C)C(C)(C)[C@@](CC=C(C)C)(C2=O)C4=O)cc1O | > 20 | > 20 | 15 | > 20 | 11.5
CC(C)=CC[C@H]1C[C@@]23C[C@@H](CC=C(C)C)C(C)(C)[C@@](CC=C(C)C)(C(=O)C(C(=O)c4ccc(O)c(OC(=O)c5ccccc5)c4)=C2OC1(C)C)C3=O | 9.51 | 9.33 | 6.17 | 13.8 | 9.99
COc1ccc(C(=O)Oc2ccc(C(=O)C3=C4OC(C)(C)[C@@H](CC=C(C)C)C[C@@]45C[C@@H](CC=C(C)C)C(C)(C)[C@H]4CCC(C)(C)O[C@]45OC3=O)cc2OC(=O)c2ccc(OC)cc2)cc1 | > 20 | > 20 | > 20 | > 20 | > 20
CC(C)=CC[C@H]1C[C@@]23C[C@@H](CC=C(C)C)C(C)(C)[C@@](CC=C(C)C)(C(=O)C(C(=O)c4ccc(OS(=O)(=O)c5ccc(C)cc5)c(OS(=O)(=O)c5ccc(C)cc5)c4)=C2OC1(C)C)C3=O | > 20 | 9.53 | 6.25 | > 20 | 3.15
CCCCCCCC(=O)Oc1ccc(C(=O)C2=C3OC(C)(C)[C@@H](CC=C(C)C)C[C@@]34C[C@@H](CC=C(C)C)C(C)(C)[C@H]3CCC(C)(C)O[C@]34OC2=O)cc1OC(=O)CCCCCCC | > 20 | > 20 | > 20 | > 20 | > 20
CC(C)=CC[C@H]1C[C@@]23C[C@@H](CC=C(C)C)C(C)(C)[C@@](CC=C(C)C)(C(=O)C(C(=O)c4ccc(OC(=O)c5cccs5)c(OC(=O)c5cccs5)c4)=C2OC1(C)C)C3=O | > 20 | 20 | 8.8 | > 20 | 16.5
